Values of other authors, collected in US20220168301A1, “METHODS FOR TREATING SYMPTOMATIC ORTHOSTATIC HYPOTENSION” (Cerecor Inc, priority 2019, published 2022).

Tested on: patients with nOH
Conditions: Phase III clinical trials; cited from earlier work

Compound: N[C@H](C(=O)O)[C@H](O)c1ccc(O)c(O)c1 [droxidopa, L-threo-3,4-dihydroxyphenyl-serine]
- Standing systolic blood pressure: increase in standing systolic blood pressure
- Symptoms of nOH (dizziness, lightheadedness or feeling about to faint): significant improvement in symptoms of nOH
